In article PMC5840262, “Design, Synthesis and Evaluation of Branched RRWQWR-Based Peptides as Antibacterial Agents Against Clinically Relevant Gram-Positive and Gram-Negative Pathogens” (Frontiers in Microbiology, 2018):
Values joined by “and” are separate entries in the source; they are usually repeats but may differ in a detail not shown here. Equal values may be shown once. Ends that are not written are not given here.

Experiments:
[1] = test system: Pseudomonas aeruginosa ATCC 10145 (sensitive); type: cell-based; conditions: P. aeruginosa ATCC 10145 sensitive; for MIC50: broth microdilution, 24 h 37°C, OD620, 50% growth inhibition; for MBC: plated on Mueller Hinton agar, 18 h 37°C, 99.9% reduction
Method: (§1) We screened all five peptides against the ATCC reference strains and the clinical isolates according to Method M7-A7 of the National Committee for Clinical Laboratory Standards (CLSI, [2007]). The MIC50 and MBC values were determined using a broth microdilution and growth inhibition method previously reported by Leon-Calvijo et al. ([2015]), with some modifications (Wiegand et al., [2008]). Briefly, the MIC50 experiments comprised a liquid-inhibition growth assay in a sterile, untreated, 96-well flat-bottom tissue culture plate. The bacteria were cultured overnight n Mueller Hinton agar; three colonies were transferred to 8 mL of Mueller Hilton broth and incubated at 37°C until the mid-exponential phase of growth. The turbidity of the cultures was measured and adjusted spectrophotometrically to a McFarland standard of 0.5, and then diluted to a final concentration of 5 × 10^7 colony forming units (CFU) per well. Stock solutions (2,000 μM) of each test peptide were serially diluted to final concentrations (per well) of 200, 100, 50, 25, 12.5, and 6.25 μM. Each concentration was evaluated in duplicate and each assay was performed in triplicate.
(§2) Wells containing Mueller Hilton broth with bacterial inoculum only served as bacterial-growth controls. Additional controls included Mueller Hilton broth alone (as blank) and Mueller Hilton broth with ciprofloxacin (2 μg/mL; as positive control). The microplate was incubated for 24 h at 37°C, and growth inhibition was measured by monitoring the optical density at 620 nm (OD620). The MIC50 was defined as the peptide concentration at which bacterial growth was inhibited by 50%.
(§3) To determine the MBC, an aliquot from each well of the MIC50 assay was spread onto Mueller Hilton agar. After 18 h at 37°C, the concentration that inhibited bacterial growth was determined. Each of these tests was performed four times. MBC was defined as the lowest concentration of peptide at which the number of bacteria was reduced by 99.9% in vitro (European Committee for Antimicrobial Susceptibility Testing, [2000]).

[2] = test system: Enterococcus faecalis ATCC 29212 (sensitive); type: cell-based; conditions: for MBC / MIC50: E. faecalis ATCC 29212 sensitive; for MBC: aliquots of MIC50 wells on Mueller Hinton agar, 18 h 37°C, 99.9% reduction; for MIC50: broth microdilution, Mueller Hinton broth, 24 h 37°C, OD620, concentration inhibiting growth by 50%
Method: as §1, §2, §3

[3] = test system: Enterococcus faecalis ATCC 51575 (resistant); type: cell-based; conditions: for MIC50 / MBC: E. faecalis ATCC 51575 resistant; for MIC50: broth microdilution, 24 h 37°C, OD620, 50% growth inhibition; for MBC: plated on Mueller Hinton agar, 18 h 37°C, 99.9% reduction
Method: as §1, §2, §3

[4] = test system: Pseudomonas aeruginosa ATCC 27853 (resistant); type: cell-based; conditions: P. aeruginosa ATCC 27853 resistant; for MIC50: broth microdilution, 24 h 37°C, OD620, 50% growth inhibition; for MBC: plated on Mueller Hinton agar, 18 h 37°C, 99.9% reduction
Method: as §1, §2, §3

[5] = test system: clinical isolates of Gram-positive bacteria (Enteroccocus faecium, Staphylococcus aureus); assay: Therapeutic index, Gram-positive clinical isolates
Source text: (§4) We determined the therapeutic index of each peptide, which we defined as the ratio of Maximum Hemolytic Activity (Hmax) to MIC50 (Hmax/MIC50).
(§5) The results are shown in Table 7 (Gram-positive) and Table 8 (Gram-negative). Regarding the Gram-positive bacteria, the palindromic, dimeric and tetrameric peptides were active chiefly against S. aureus. This trend was consistent with results of the experiments on the ATCC strains, in which these peptides were only active against the sensitive strain of the […] bacteria.

[6] = test system: human erythrocytes; assay: Hemolytic activity; type: cell-based
Method: Human erythrocytes collected from the blood samples of healthy humans were harvested by centrifugation for 7 min at 162 × g and washed three times in phosphate-buffered saline (PBS). The erythrocytes (2% hematocrit in PBS) were incubated with peptide molecules at several concentrations (6.25, 12.5, 25, 50, and 100 μM) for 2 h at 37°C. PBS was used as negative control for hemolysis, and sterile distilled water was used as positive control (100% hemolysis). The plate was subsequently centrifuged at 1,459 × g for 10 min at 4°C. Aliquots of the supernatant from each well (75 μL) were carefully transferred to a new sterile 96-well plate, and hemolytic activity was evaluated by measuring the OD492 using an Asys Expert Plus Microplate reader. The experiments were performed in duplicate, and hemolytic activity was calculated for each peptide.

[7] = test system: clinical isolates of Gram-negative bacteria (Klebsiella pneumoniae, Pseudomonas aeruginosa); assay: Therapeutic index, Gram-negative clinical isolates
Source text: as §4, §5

[8] = test system: Gram-negative ATCC strains (K. pneumoniae 13883 and 700603, P. aeruginosa 10145 and 27853)
Source text: as §4
The therapeutic index (TI) is a ratio of the toxic dose of a substance to its therapeutically-active dose and can be calculated different ways (e.g., LD50/ED50). Here, we calculated a TI value for each peptide against all the Gram-positive or the Gram-negative ATCC strains, by dividing its Hmax by its MIC50 for the given group of strains. […] Additionally, to make our quantitative analysis more robust [geometric mean (Khachatryan et al., [2017]) and fold values], we have included MIC50 values for these peptides against S. aureus and K. pneumoniae that we previously obtained using the same assay, the M7-A7 method of the National Committee for Clinical Laboratory Standards (Leon-Calvijo et al., [2015]).

[9] = test system: Staphylococcus aureus clinical isolate 43,337; type: cell-based; conditions: S. aureus isolate 43,337; for MIC50: broth microdilution, 24 h 37°C, OD620, 50% growth inhibition; for MBC: plated on agar 18 h 37°C, 99.9% reduction
Method: (§6) For the clinical isolates, we used 20 different isolates from the Public Health Reference Laboratory collection of the Secretaría de Salud del Distrito (SdSD; Bogotá, Colombia). The samples were collected from June to December 2016. For each isolate, the patient parameters (age, gender and location) and the culture site were recorded for epidemiologic monitoring (Table 1). All isolates had been previously tested for antibiotic sensitivity at the Public Health Microbiology Laboratory using either the Phoenix™ system (Gram-positive) or the VITEK 2 system (Gram-negative).
as §1, §2, §3

[10] = test system: Pseudomonas aeruginosa clinical isolate 48,220; type: cell-based; conditions: P. aeruginosa isolate 48,220; for MIC50: broth microdilution, 24 h 37°C, OD620, 50% growth inhibition; for MBC: plated on agar 18 h 37°C, 99.9% reduction
Method: as §6, §1, §2, §3

[11] = test system: Klebsiella pneumoniae clinical isolate 49,644; type: cell-based; conditions: K. pneumoniae isolate 49,644
Method: as §6, §1, §2, §3

In the case of “(RRWQWR)4K2Ahx2C2 (disulfide) [LfcinB (20–25)4, branched tetrameric peptide (RRWQWR)4K2Ahx2C2, two dimers linked by a cysteine disulfide bridge]”, the MIC50 [1] is reported as 18.1 µM, the MBC [1] is reported as 50.0 µM and the “Bacterial viability (lowest value observed)” value ([2]; 6.2 μM, untreated control = 100%, Figure 2A) is reported as 48.9%. The MBC [2] was 25.0 µM, the MIC50 [2] was 3.1 µM and the “Bacterial viability (lowest value observed)” value ([3]; 12.5 μM, untreated control = 100%, Figure 2B) was 62.4%. The MIC50 [3] was greater than 200.0 µM, the MBC [3] was greater than 200.0 µM and the MIC50 [4] was 21.7 µM. The MBC [4] was 50.0 µM, the “Fold (GM peptide / GM tetrameric peptide)” value ([5]; Gram-positive clinical isolates) was 1.0 and the “Gm, geometric mean of MIC50 values” ([5]; Gram-positive clinical isolates (E. faecium, S. aureus) with a printed MIC50) was 7.0. For the same substance, the “Hmax relative to that of the dimer” value [6] was 8 x, the “Fold (GM peptide / GM tetrameric peptide)” value ([7]; Gram-negative clinical isolates) was 1.0 and the Gm, geometric mean of MIC50 values ([7]; Gram-negative clinical isolates (K. pneumoniae, P. aeruginosa) with a printed MIC50) was 9.7 µM. The “Fold (GM peptide / GM tetrameric peptide)” value ([8]; Gram-negative ATCC strains) was 1.0, the “Gm, geometric mean of MIC50 values” ([8]; Gram-negative ATCC strains 13883, 700603, 10145, 27853, in µM) was 13.1 and the MIC50 [9] was 6.3 µM. It also gave an MBC [9] of 12.5 µM, an MIC50 [10] of 12.6 µM and an MBC [10] of 25.0 µM.
Substance “RRWQWR-NH2 [LfcinB (20–25), reference compound]” has an MIC50 [1] greater than 200.0 µM, an MBC [1] greater than 200.0 µM and an MBC [2] greater than 200.0 µM. For the same substance, the MIC50 [2] was greater than 200.0 µM, the MIC50 [3] was 198.0 µM and the MBC [3] was greater than 200.0 µM. For the same substance, the MIC50 [4] was greater than 200.0 µM, the MBC [4] was greater than 200.0 µM and the “Hmax, maximum hemolytic activity” value ([6]; human red blood cells, 2% hematocrit in PBS, 2 h 37°C, OD492, peptide 6.25-100 μM, concentration of the maximum in the column beside, duplicate) was 7.1%. The “H50, concentration of peptide leading to 50% hemolysis” value ([6]; human red blood cells, 2 h 37°C, highest concentration tested 100 μM) was greater than 100 µM, the “Peptide concentration corresponding to Hmax” value ([6]; human red blood cells, 2 h 37°C, used as MHC in the therapeutic index) was 25 µM and 25.0 µM and the MIC50 [9] was 3.7 µM. The MBC [9] was greater than 100 µM, the MIC50 ([11]; broth microdilution, 24 h 37°C, OD620, 50% growth inhibition) was greater than 100 µM and the MBC ([11]; plated on agar 18 h 37°C, 99.9% reduction) was greater than 100 µM. The MIC50 [10] was greater than 100 µM and the MBC [10] was greater than 100 µM.
